{"source": "patent US11389440B2", "about": "“PIM kinase inhibitors in combination with autophagy inhibitors for treatment of cancers” (UNIVERSITY OF MARYLAND, BALTIMORE COUNTY, priority 2017, dated 2022)", "key": {"Molm16 cells": {"tested_on": "Molm16 cells", "experiment": "Molm16 cells treated with AZD1208 in combination with autophagy inhibitors (FA values, CI values)", "assay_type": "cell-based", "design": "key: fraction of cells affected by treatment (0–1)", "procedure": "(§1) General experimental procedure: 20,000 (EOL1) cells were seeded per well in 96-well plates. […] At 48 hours the MTT metabolism indicative of number of live cells was measured by MTT assay (Promega, Cat: G4000). The resulting values were used to evaluate the Fa (fraction affected) values, which were plugged into the CompuSyn software to calculate the combination indices (CI values) at ED50, ED75, ED90 and ED95 (ED—Effective dose of combination).\nThese are values of drug dose and effect (fraction of cells affected by the treatment—FA values). The treatment time is 72 hours.\n(§2) The data presented in this Table 5 is from an experiment in which Molm16 cells were treated with AZD1208 in combination with verteporfin (AZD1208 μM:verteporfin μM=1:200). These are values of drug dose and effect (fraction of cells affected by the treatment—FA values). The treatment time is 72 hours.\nas §2, with “6” for “5”, “Bafilomycin A1” for “verteporfin”, “μM:bafilomycin A1 μM=1:1).” for “μM:verteporfin μM=1:200).”, “48” for “72”"}, "[1]": {"tested_on": "acute myeloid leukemia cells (EOL1)", "experiment": "MTT assay of EOL1 cells treated with AZD1208 and chloroquine alone and in combination; CI by CompuSyn", "assay_type": "cell-based, human", "conditions": "EOL1, 48 hours, scale 0-1", "procedure": "as §1\nThe data were analyzed using CompuSyn, an algorithm based on the Chao-Talalay method for detecting drug synergy (3).\nTable 3. […] CI values were determined using CompuSyn at 50%, 75%, 90%, and 95% growth inhibition (GI) Cell growth was measured using standard 3-(4,5-dimethylthiazol-2-yl)-2,5-diphenyltetrazolium bromide (MTT) assays."}}}
{"molecule": "CO/C1=C\\C(C)=C\\[C@@H](C)[C@@H](O)[C@@H](C)C/C(C)=C/C=C/[C@H](OC)[C@@H]([C@@H](C)[C@@H](O)[C@H](C)[C@@]2(O)C[C@@H](O)[C@H](C)[C@@H](C(C)C)O2)OC1=O", "note": "[Bafilomycin A1]", "values": [{"measurement": "Effect (FA, fraction of cells affected)", "setting": "Molm16 cells; Bafilomycin A1 alone 0.00625 μM, Molm16, 48 hours", "result": 0.4744}, {"measurement": "Effect (FA, fraction of cells affected)", "setting": "Molm16 cells; Bafilomycin A1 alone 0.0125 μM, Molm16, 48 hours", "result": 0.7998}, {"measurement": "Effect (FA, fraction of cells affected)", "setting": "Molm16 cells; Bafilomycin A1 alone 0.025 μM, Molm16, 48 hours", "result": 0.8279}]}
{"molecule": "N[C@@H]1CCCN(c2c(/C=C3/SC(=O)NC3=O)cccc2-c2ccccc2)C1", "note": "[AZD1208, (5E)-5-[[2-[(3R)-3-aminopiperidin-1-yl]-3-phenylphenyl]methylidene]-1,3-thiazolidine-2,4-dione]", "values": [{"measurement": "Effect (FA, fraction affected)", "setting": "[1]; AZD1208 alone 0.05 μM", "result": 0.505}, {"measurement": "Effect (FA, fraction affected)", "setting": "[1]; AZD1208 alone 0.1 μM", "result": 0.639}, {"measurement": "Effect (FA, fraction affected)", "setting": "[1]; AZD1208 alone 0.25 μM", "result": 0.386}, {"measurement": "Effect (FA, fraction of cells affected)", "setting": "Molm16 cells; AZD1208 alone 0.00625 μM, Molm16, 48 hours, Table 6", "result": 0.1716}, {"measurement": "Effect (FA, fraction of cells affected)", "setting": "Molm16 cells; AZD1208 alone 0.0125 μM, Molm16, 48 hours, Table 6", "result": 0.2259}, {"measurement": "Effect (FA, fraction of cells affected)", "setting": "Molm16 cells; AZD1208 alone 0.0125 μM, Molm16, 72 hours, Table 4", "result": 0.2413}, {"measurement": "Effect (FA, fraction of cells affected)", "setting": "Molm16 cells; AZD1208 alone 0.025 μM, Molm16, 48 hours, Table 6", "result": 0.3615}, {"measurement": "Effect (FA, fraction of cells affected)", "setting": "Molm16 cells; AZD1208 alone 0.025 μM, Molm16, 72 hours, Table 4", "result": 0.354}, {"measurement": "Effect (FA, fraction of cells affected)", "setting": "Molm16 cells; AZD1208 alone 0.05 μM, Molm16, 72 hours, Table 4", "result": 0.5497}, {"measurement": "Effect (FA, fraction of cells affected)", "setting": "Molm16 cells; AZD1208 alone 0.05 μM, Molm16, 72 hours, Table 5", "result": 0.4847}, {"measurement": "Effect (FA, fraction of cells affected)", "setting": "Molm16 cells; AZD1208 alone 0.1 μM, Molm16, 72 hours, Table 5", "result": 0.6474}]}
{"molecule": "CCN(CC)CCCC(C)Nc1ccnc2cc(Cl)ccc12", "note": "(stereo not shown) [chloroquine]", "values": [{"measurement": "Effect (FA, fraction of cells affected)", "setting": "Molm16 cells; chloroquine alone 10 μM, Molm16, 72 hours", "result": 0.05357}, {"measurement": "Effect (FA, fraction of cells affected)", "setting": "Molm16 cells; chloroquine alone 20 μM, Molm16, 72 hours", "result": 0.1376}, {"measurement": "Effect (FA, fraction of cells affected)", "setting": "Molm16 cells; chloroquine alone 40 μM, Molm16, 72 hours", "result": 0.4647}]}
{"molecule": "Verteporfin", "values": [{"measurement": "Effect (FA, fraction of cells affected)", "setting": "Molm16 cells; Verteporfin alone 10 μM, Molm16, 72 hours", "result": 0.08412}, {"measurement": "Effect (FA, fraction of cells affected)", "setting": "Molm16 cells; Verteporfin alone 20 μM, Molm16, 72 hours", "result": 0.2143}]}
